Data from the RepoRT retention time repository (doi:10.1038/s41597-019-0305-1).

Assay: RP, Waters SunFire C18, 50 × 4.6 mm, 3.5 µm, 0.5 mL/min, estimated dead time 1.1 min; A: water + 0.1% formic acid; B: acetonitrile + 0.1% formic acid; gradient (min/%B) 0/5 7/100 8/100
Conditions: stereoisomer not certain

| Compound | LC retention time |
| --- | --- |
| CCCC(=O)Cc1cc(OC(=O)c2c(O)cc(OC)cc2CC(=O)CCC)cc(O)c1C(=O)O | 6.92 min |
| Cc1cc(O)c(C=O)c2c1C(=O)Oc1c(C)c(O)c3c(c1O2)C(O)OC3=O (configuration not stated) | 5.3 min |
| COC(=O)c1c(C)cc(OC(=O)c2c(C)cc(OC(=O)c3c(C)cc(OC)cc3O)cc2O)cc1O | 7.74 min |
| CCCc1cc(O)cc(O)c1 | 3.97 min |
| Cc1cc(O)c2c(c1)C(=O)c1c(c(O)cc(O)c1-c1c(O)cc(O)c3c1C(=O)c1cc(C)cc(O)c1C3=O)C2=O | 6.57 min |
| Cc1cc(=O)c2c(O)c(C)c(O)cc2o1 | 4.52 min |
| CCCCCC(=O)Cc1cc(O)cc2c1C(=O)Oc1cc(O)c(C(=O)O)c(CC(=O)CCCCC)c1O2 | 7.64 min |
| COC1=C(O)c2cc3oc(C(C)=O)c(O)c3c(O)c2C(=O)C1=O | 4.27 min |
| Cc1cc(O)c(C)c(O)c1 | 3.25 min |
| O=C1OC(=C2C(=O)Oc3ccccc32)C(O)=C1c1ccccc1 | 7.68 min |
| CCCCCc1cc(O)c(OC(=O)c2c(CCC)cc(OC)cc2OC)c(O)c1C(=O)O | 6.84 min |
| Cc1cc(O)c(C=O)c2c1C(=O)Oc1c(CO)c(O)c3c(c1O2)C(O)OC3=O (configuration not stated) | 4.51 min |
| CCCCCC(=O)Cc1cc(OC)c(O)c2c1C(=O)Oc1cc(O)c(C(=O)O)c(CCCCC)c1O2 | 6.95 min |
| COC12CC(=O)C(C(C)=O)=C(O)C1(C)c1c(O)c(C)c(O)c(C(C)=O)c1O2 (configuration not stated) | 7.08 min |
| O=C1C(O)=C(c2ccccc2)C(=O)C(O)=C1c1ccccc1 | 5.71 min |
| CCCCCC(=O)Cc1c(Oc2cc(OC)cc3cc(CCCCC)oc(=O)c23)c(O)cc(O)c1C(=O)O | 7.09 min |
| Cc1cc(O)cc(O)c1C(=O)O | 3.41 min |
| CCCCCC(=O)Cc1cc(O)cc(O)c1C(=O)Oc1cc(O)c(C(=O)O)c(CCCCC)c1 | 6.74 min |
| COc1cc(O)cc(C)c1C(=O)Oc1cc(C)c(C(=O)Oc2cc(C)c(C(=O)O)c(O)c2)c(O)c1 | 6.17 min |
| C=C1C(=O)OC(CCCCCCCCCCCCC)C1C(=O)O (configuration not stated) | 7.88 min |
| CCCCCC(=O)Cc1cc(O)cc(O)c1C(=O)Oc1cc(CC(=O)CCCCC)c(C(=O)O)c(OC)c1 | 6.03 min |

| Compound | LC retention time |
| --- | --- |
| COc1cc(C)c2c(c1C=O)Oc1c(c(C)c(O)c3c1C(O)OC3=O)OC2=O (configuration not stated) | 4.93 min |
| COc1cc(C)c(C(=O)Oc2cc(C)c(C(=O)O)c(O)c2C)c(O)c1C | 7.26 min |
| COc1cc(OC(=O)c2c(C)cc(O)cc2O)cc(C)c1C(=O)Oc1cc(C)c(C(=O)O)c(O)c1 | 6.2 min |
| COc1cc(C)c(C(=O)Oc2c(C)c(C(=O)O)c(O)c(C=O)c2O)c(O)c1C=O | 6.37 min |
| CCCCCCCCCCCCCCC(C(=O)O)C(CC(=O)O)C(=O)O (configuration not stated) | 7.46 min |
| CC(=O)C1=C(O)C=C2Oc3c(C)c(O)c(C(C)=O)c(O)c3C2(C)C1=O (configuration not stated) | 7.45 min |
| COC1=CC(=O)c2c(OC(C)=O)c3c(c(O)c2C1=O)CC(C)OC3=O (configuration not stated) | 6.99 min |
| CCCCCC(=O)Cc1cc(O)cc2c1C(=O)Oc1cc(O)c(C(=O)O)c(CCCCC)c1O2 | 7.13 min |
| CCC(C)C(NC(=O)c1ccccc1)C(=O)NC(COC(=O)c1ccccc1)C(C)C (configuration not stated) | 6.25 min |
| COC(=O)c1c(C)cc(O)c(C)c1O | 5.37 min |
| CC1C(=O)OC(CCCCCCCCCC(C)(C)C)C1C(=O)O (configuration not stated) | 8 min |
| CCCCCc1cc(OC(=O)c2c(O)cc(O)cc2CCCCC)cc(O)c1C(=O)O | 7.28 min |
| COc1cc(C)c(C(=O)Oc2c(C)c(C(=O)O)c(O)c(C=O)c2O)c(O)c1C(=O)O | 5.8 min |
| CCCCCc1cc(OC(=O)c2c(O)cc(OC)cc2CC(=O)CCC)cc(O)c1C(=O)O | 7.28 min |
| CCCc1cc(OC)cc(O)c1C(=O)Oc1c(O)cc(CCC)c(C(=O)OC)c1O | 7.11 min |
| O=C1NC(c2ccccc2)CC(=O)N2CCCC2C(=O)NC(c2ccccc2)CC(=O)N2CCCC12 (configuration not stated) | 5.08 min |
| COc1cc2oc(C)cc(=O)c2c(O)c1COC(=O)C=C(C)CC(=O)O | 5.06 min |
| CCCCCc1cc(OC(=O)c2c(CCCCC)cc(OC)cc2OC)cc(OC)c1C(=O)O | 7.52 min |
| CC(=O)CCCCCCCCCCCCCC1OC(=O)C(C)=C1C(=O)O (configuration not stated) | 6.9 min |
| COc1cc(O)cc(C)c1C(=O)O | 2.35 min |
| CC(=O)c1c(O)cc(O)cc1O | 3.77 min |

| Compound | LC retention time |
| --- | --- |
| COC1=CC(=O)c2c(O)c3c(c(O)c2C1=O)CC(C)OC3=O (configuration not stated) | 4.41 min |
| COC(=O)C(CC(C)C)NC(=O)C(=C1OC(=O)C(c2ccccc2)=C1O)c1ccccc1 (configuration not stated) | 7.82 min |
| COc1cc(C)c(C)c(OC(=O)c2c(C)c(C=O)c(O)c(C=O)c2O)c1C | 6.73 min |
| COCc1c(O)c(C(=O)O)c(C)c2c1OC(=O)c1c(C)cc(O)c(C=O)c1O2 | 5.99 min |
| COc1cc(O)c2c(c1)C(=O)c1cc(C=O)cc(O)c1C2=O | 6 min |
| Cc1cc(O)c(C=O)c2c1C(=O)Oc1c(COC(=O)CCC(=O)O)c(O)c(C(=O)O)c(C)c1O2 | 6.28 min |
| Cc1cc(OC(=O)c2c(C)cc(O)cc2O)cc(O)c1C(=O)OCC(O)C(O)CO (configuration not stated) | 4.52 min |
| COc1cc(C)c2c(=O)c3c(O)cc(OC)cc3oc2c1 | 6.94 min |
| Cc1cc(O)c(C)c(O)c1C(=O)O | 3.99 min |
| CC(=O)OCC1OC(Oc2cc(O)c3c(=O)cc(C)oc3c2C)C(OC(C)=O)C(OC(C)=O)C1O (configuration not stated) | 5.4 min |
| Cc1cc(O)cc2c1C(=O)Oc1cc3c(c(O)c1O2)C(=O)OC3 | 4.58 min |
| COc1cc(C)c(C(=O)O)c(O)c1C | 5.09 min |
| COC1=CC(=O)C(=O)c2cc3oc(C)cc(=O)c3c(OC)c21 | 4.03 min |
| Cc1cc(OC(=O)c2c(C)cc(O)cc2O)cc(O)c1C(=O)O | 5.3 min |
| Cc1cc(O)c(C=O)c(O)c1C(=O)OCc1cc(O)c(C=O)c(O)c1C(=O)O | 7.26 min |
| COc1cc(O)c2c(c1)C(=O)c1cc(C(=O)O)cc(O)c1C2=O | 5.72 min |
| COC(=O)c1c(C)cc(O)cc1O | 4.63 min |
| CCCCCCCCCCCCC(C(=O)O)C(C)C(=O)O (configuration not stated) | 7.45 min |
| Cc1cc(O)cc(O)c1C(=O)Oc1cc(C)c(C(=O)Oc2c(O)cc(O)c(C(=O)O)c2C)c(O)c1 | 5.63 min |

Next, values leading:

| LC retention time | Compound |
| --- | --- |
| 5.25 min | CC1OC2(C(C)C(O)C1C)C(C)C1OC(=O)C2(C)C(=O)C1C (configuration not stated) |
| 6.35 min | CC(=O)OC(C)CC1CC(OC(C)=O)C(C)C(O)C(C)C(=O)OC(CC(C)OC(C)=O)CC(OC(C)=O)C(C)C(O)C(C)C(=O)O1 (configuration not stated) |
| 6.53 min | C=C1C(=O)OC(CCCCCCCCCCCCCC(C)O)C1C(=O)O (configuration not stated) |
| 7.27 min | O=C(NC(Cc1ccccc1)C(=O)O)C(=C1OC(=O)C(c2ccccc2)=C1O)c1ccccc1 (configuration not stated) |
| 4.75 min | COc1cc(O)c2c(c1)C(=O)c1c(O)c(C)cc(O)c1C2=O |
| 7.83 min | CCC(C)CC(C)C(O)C(C)C(=O)OC(C(C)CC(C)CC)C(C)C(=O)O (configuration not stated) |
| 6.74 min | Cc1cc(O)c(C=O)c(O)c1C(=O)OCc1cc(O)c(C)c(O)c1C(=O)O |
| 5.15 min | Cc1cc(O)cc2oc3cc(O)cc(O)c3c(=O)c12 |
| 6.88 min | COC12CC(=O)C(C(C)=O)=C(O)C1(C)c1c(O)c(C(C)=O)c(O)c(C)c1O2 (configuration not stated) |
| 4 min | CC(=O)OC1C(Oc2cc3oc(C)cc(=O)c3c(O)c2C)OC(CO)C(O)C1O (configuration not stated) |
| 6.39 min | Cc1cc(O)c2c(c1)C(=O)c1cccc(O)c1C2=O |
| 7.09 min | CCCCCc1c(C(=O)O)c(O)cc2oc3cc(OC)cc(CCC)c3c12 |
| 7.46 min | CCCCCCCCCCCC1OC(=O)C(C)C1C(=O)O (configuration not stated) |
| 6.23 min | COc1cc(C)c2c(c1C)Oc1c(cc(O)c(C(=O)O)c1C)OC2=O |
| 5.27 min | Cc1cc(O)c(C)c2c1C(=O)Oc1cc(O)c(C(=O)O)c(C)c1O2 |
| 7.83 min | CCCc1cc(OC)cc(O)c1C(=O)Oc1c(OC)cc(CCC)c(C(=O)O)c1O |

| LC retention time | Compound |
| --- | --- |
| 6.17 min | CCC(C)C(NC(=O)c1ccccc1)C(=O)OCC(NC(=O)c1ccccc1)C(C)C (configuration not stated) |
| 6.35 min | COc1cc(C)c(C(=O)Oc2cc(C)c(C(=O)O)c(O)c2C)c(O)c1C=O |
| 7.36 min | CCCCCc1cc(OC)c(O)c2c1C(=O)Oc1cc(O)c(C(=O)O)c(CCCCC)c1O2 |
| 5.81 min | CCCCCc1c(Oc2cc(OC)cc3c2C(=O)OC3(O)CCCC)c(O)cc(O)c1C(=O)O (configuration not stated) |
| 4.52 min | O=C1c2oc3cc(O)c(O)cc3c2C(=O)c2oc3cc(O)c(O)cc3c21 |
| 7.27 min | CC(=O)C1=C(O)C=C2Oc3c(C(C)=O)c(O)c(C)c(O)c3C2(C)C1=O (configuration not stated) |
| 6.95 min | CCCCCCCCCCC1CC(C(=O)O)C(C)C(=O)O1 (configuration not stated) |
| 8 min | CCCCCCCCCCCCCC1OC(=O)C(C)C1C(=O)O (configuration not stated) |
| 7.4 min | Cc1cc(O)c2c(c1)oc1cc(O)cc(C)c12 |
| 4.23 min | COC1=CC(=O)c2c(O)c3c(c(O)c2C1=O)C(O)C(C)OC3=O (configuration not stated) |
| 4.15 min | CCCc1cc(O)cc(O)c1C(=O)O |
| 6.34 min | Cc1cc(O)c2c(=O)c3c(C)cc(O)cc3oc2c1 |
| 6 min | COC(=O)C12Oc3ccc(-c4ccc5c(c4O)C(O)=C4C(=O)CC(C)C(O)C4(C(=O)OC)O5)c(O)c3C(O)=C1C(=O)CC(C)C2O (configuration not stated) |
| 5.9 min | CC(=O)OCC1OC(Oc2cc(O)c3c(=O)cc(C)oc3c2C)C(OC(C)=O)C(OC(C)=O)C1OC(C)=O (configuration not stated) |
| 7.31 min | CCCCCc1cc(OC(=O)c2c(O)cc(OC)cc2CCC(=O)CC)cc(O)c1C(=O)O |
